Test results taken from patent EP3679037B1, “NEW 5-AMINOTETRAZOLE DERIVATIVES WITH ANTIBACTERIAL AND ANTIFUNGAL ACTIVITY” (Warszawski Uniwersytet Medyczny, priority 2017, dated 2019).
Values after ≈ are worked out from the molar mass of the structure shown. Like-named read-outs stand apart in the source and are kept apart here.

How the values were obtained:
[1] = tested on: non-cancerous, immortalized human keratinocyte (HaCaT) cell line; assay: Cytotoxicity (inhibition of cell proliferation), HaCaT cell line; type: cell-based
Description: (§1) The obtained compounds were tested for potential cytotoxicity. They are not cytotoxic to the non-cancerous, immortalized human keratinocyte (HaCaT) cell line and the lung cancer cell line (A549).

[2] = tested on: lung cancer cell line (A549); assay: Cytotoxicity (inhibition of cell proliferation), A549 cell line; type: cell-based; settings: Homo sapiens
Description: as §1

S. aureus DNA Gyrase = S. aureus DNA Gyrase (Staphylococcus aureus, UniProt P0A0K8+P20831); assay: Inhibition of bacterial DNA gyrase; type: biochemical; settings: dose of inhibitor suppressing 50% activity
Chain of S. aureus DNA Gyrase (P20831 whole entry): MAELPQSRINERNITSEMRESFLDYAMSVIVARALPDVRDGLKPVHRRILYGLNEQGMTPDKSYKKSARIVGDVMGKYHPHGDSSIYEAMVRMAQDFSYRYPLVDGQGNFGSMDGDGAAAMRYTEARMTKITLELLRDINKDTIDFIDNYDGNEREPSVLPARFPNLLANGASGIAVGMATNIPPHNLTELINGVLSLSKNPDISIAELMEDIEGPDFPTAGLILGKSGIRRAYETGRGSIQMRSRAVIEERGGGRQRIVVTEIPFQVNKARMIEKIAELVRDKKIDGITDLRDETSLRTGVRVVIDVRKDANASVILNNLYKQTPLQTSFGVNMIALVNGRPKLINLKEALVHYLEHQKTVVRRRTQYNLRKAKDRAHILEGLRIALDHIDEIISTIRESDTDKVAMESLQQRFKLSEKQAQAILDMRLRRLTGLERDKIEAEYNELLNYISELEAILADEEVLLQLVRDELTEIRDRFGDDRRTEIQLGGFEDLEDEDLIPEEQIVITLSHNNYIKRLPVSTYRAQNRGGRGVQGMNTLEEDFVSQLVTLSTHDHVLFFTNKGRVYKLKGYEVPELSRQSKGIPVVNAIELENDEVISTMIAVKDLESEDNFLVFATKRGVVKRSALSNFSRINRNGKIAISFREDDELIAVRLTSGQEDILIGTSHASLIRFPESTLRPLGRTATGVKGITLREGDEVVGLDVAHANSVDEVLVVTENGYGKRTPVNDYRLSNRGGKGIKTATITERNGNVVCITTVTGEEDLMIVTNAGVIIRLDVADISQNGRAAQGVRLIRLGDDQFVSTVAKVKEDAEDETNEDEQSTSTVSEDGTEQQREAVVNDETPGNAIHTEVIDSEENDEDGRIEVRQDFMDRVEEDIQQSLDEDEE
Chain of S. aureus DNA Gyrase (P0A0K8 whole entry): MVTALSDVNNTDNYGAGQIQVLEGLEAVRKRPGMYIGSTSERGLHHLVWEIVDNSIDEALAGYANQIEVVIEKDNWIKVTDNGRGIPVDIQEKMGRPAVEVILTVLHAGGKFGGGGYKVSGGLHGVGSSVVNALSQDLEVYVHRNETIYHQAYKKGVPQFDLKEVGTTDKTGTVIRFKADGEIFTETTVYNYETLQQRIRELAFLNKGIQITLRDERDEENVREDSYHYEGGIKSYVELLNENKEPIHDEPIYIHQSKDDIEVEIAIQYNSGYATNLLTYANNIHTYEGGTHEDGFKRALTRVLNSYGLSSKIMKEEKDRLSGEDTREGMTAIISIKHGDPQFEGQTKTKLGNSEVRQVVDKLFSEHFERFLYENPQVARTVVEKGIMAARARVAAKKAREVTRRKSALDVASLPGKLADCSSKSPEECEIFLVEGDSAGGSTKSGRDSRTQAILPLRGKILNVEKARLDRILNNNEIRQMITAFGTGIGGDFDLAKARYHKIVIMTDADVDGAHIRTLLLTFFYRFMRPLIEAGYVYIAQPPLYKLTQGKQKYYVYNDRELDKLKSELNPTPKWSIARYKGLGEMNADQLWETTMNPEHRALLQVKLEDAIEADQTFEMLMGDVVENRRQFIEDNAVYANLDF
From the text: (§2) The mechanism of action was verified for the obtained compounds by inhibiting bacterial topoisomerases (Topoisomerase IV and Gyrase).

[3] = target: S. aureus Topoisomerase IV (Staphylococcus aureus, UniProt P0C1S7+P0C1U9); assay: Inhibition of bacterial topoisomerase IV; type: biochemical; settings: dose of inhibitor suppressing 50% activity
Chain of S. aureus Topoisomerase IV (P0C1S7 whole entry): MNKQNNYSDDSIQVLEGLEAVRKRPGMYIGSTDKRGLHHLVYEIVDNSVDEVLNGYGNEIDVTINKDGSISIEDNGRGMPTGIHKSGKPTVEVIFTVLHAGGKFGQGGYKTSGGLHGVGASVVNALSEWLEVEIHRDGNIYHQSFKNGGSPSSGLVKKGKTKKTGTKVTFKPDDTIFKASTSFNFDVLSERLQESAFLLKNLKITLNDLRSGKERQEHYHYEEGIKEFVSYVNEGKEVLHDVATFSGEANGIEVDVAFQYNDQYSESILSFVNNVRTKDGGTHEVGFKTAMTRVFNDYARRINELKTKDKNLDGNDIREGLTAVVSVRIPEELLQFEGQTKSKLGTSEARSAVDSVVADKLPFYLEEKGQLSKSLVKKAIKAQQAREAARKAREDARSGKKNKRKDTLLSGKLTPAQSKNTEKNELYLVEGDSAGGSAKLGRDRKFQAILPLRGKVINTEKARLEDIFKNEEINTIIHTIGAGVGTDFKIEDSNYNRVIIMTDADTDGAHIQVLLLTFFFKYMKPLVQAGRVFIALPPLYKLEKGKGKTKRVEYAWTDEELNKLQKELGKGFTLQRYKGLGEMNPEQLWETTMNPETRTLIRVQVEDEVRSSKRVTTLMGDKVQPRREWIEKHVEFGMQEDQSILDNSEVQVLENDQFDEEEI
Chain of S. aureus Topoisomerase IV (P0C1U9 whole entry): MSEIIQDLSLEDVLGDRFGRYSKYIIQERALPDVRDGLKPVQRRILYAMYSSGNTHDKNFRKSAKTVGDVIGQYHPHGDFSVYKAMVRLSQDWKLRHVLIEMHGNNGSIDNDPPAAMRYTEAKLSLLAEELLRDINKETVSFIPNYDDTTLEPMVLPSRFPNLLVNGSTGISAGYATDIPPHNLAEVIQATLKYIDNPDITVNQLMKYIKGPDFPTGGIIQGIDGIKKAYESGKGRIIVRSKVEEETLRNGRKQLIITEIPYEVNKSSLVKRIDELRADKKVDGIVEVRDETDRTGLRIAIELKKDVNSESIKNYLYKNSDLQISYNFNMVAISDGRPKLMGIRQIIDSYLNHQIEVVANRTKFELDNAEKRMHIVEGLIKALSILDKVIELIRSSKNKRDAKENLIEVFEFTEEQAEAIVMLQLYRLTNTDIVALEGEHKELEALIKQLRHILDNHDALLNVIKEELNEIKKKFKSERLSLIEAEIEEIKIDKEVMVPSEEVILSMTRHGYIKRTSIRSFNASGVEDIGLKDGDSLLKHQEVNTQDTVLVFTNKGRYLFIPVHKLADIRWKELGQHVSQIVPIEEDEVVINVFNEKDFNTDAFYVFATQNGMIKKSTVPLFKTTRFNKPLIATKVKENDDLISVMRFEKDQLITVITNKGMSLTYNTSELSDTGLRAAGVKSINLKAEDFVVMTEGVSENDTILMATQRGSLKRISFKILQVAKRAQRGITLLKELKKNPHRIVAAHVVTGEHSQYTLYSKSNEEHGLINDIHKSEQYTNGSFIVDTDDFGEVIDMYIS
From the text: as §2

[4] = concentration at which cell proliferation is inhibited by 50% in relation to the control, read-out: IC50

With Fc1ccc(-n2nnnc2Nn2cnnc2)cc1 [Compound 9, 1-(4-fluorophenyl)-N-(4H-1,2.4-triazol-4-yl)-1H-tetrazole-5-amine] the IC50 [1] was 84 µM and the IC50 [2] was 80 µM.
In the case of Cc1ccc(-n2nnnc2NCc2ccco2)cc1Cl [Compound 10, 1-(3-chloro-4-methylphenyl)-N-(furan-2-ylmethyl)-1H-tetrazole-5-amine], the IC50 [1, 4] is reported as 80 µM, the IC50 [2, 4] is reported as 78 µM and the “IC50 S. aureus DNA Gyrase” value (S. aureus DNA Gyrase) is reported as 22.8 ± 0.4 µg/mL (≈ 78.7 µM). For the same compound, the IC50 [3] was 41.1 µM.
With Fc1ccc(-n2nnnc2Nc2nccs2)cc1Cl [Compound 2, N-(1-(3-chloro-4-fluorophenyl)-1H-tetrazol-5-yl)thiazol-2-amine] the IC50 [1, 4] was 60 µM and the IC50 [2, 4] was 60 µM.
With Brc1ccc(-n2nnnc2Nn2cnnc2)cc1 [Compound 5, 1-(4-bromophenyl)-N-(4H-1,2.4-triazol-4-yl)-1H-tetrazole-5-amine] the IC50 [1] was 65 µM and the IC50 [2] was 62 µM.
Clc1ccc(-n2nnnc2NCc2ccco2)cc1Cl [Compound 11, 1-(3,4-dichlorophenyl)-N-(furan-2-ylmethyl)-1H-tetrazole-5-amine] gave an IC50 [1, 4] of 84 µM, an IC50 [2, 4] of 80 µM and an IC50 (S. aureus DNA Gyrase) of 2.9 µM. The IC50 [3] was 8.38 µM.
Work on Fc1ccc(-n2nnnc2Nn2cnnc2)cc1Cl [Compound 8, 1-(3-chloro-4-fluorophenyl)-N-(4H-1,2.4-triazol-4-yl)-1H-tetrazole-5-amine] yielded an IC50 [1] of 62 µM and an IC50 [2] of 60 µM.
For FC(F)(F)c1ccc(-n2nnnc2Nc2nccs2)cc1 [Compound 3, N-(1-(4-(trifluoromethyl)phenyl)-1H-tetrazol-5-yl)thiazole-2-amine], the IC50 [1, 4] was 80 µM and the IC50 [2, 4] was 76 µM.
